The values below come from patent publication US10357036B2, “Compounds for controlling arthropods” (priority 2015, dated 2019).

SMILES strings stand for the structures.

The test system of one test is Myzus persicae. Kind of test: Myzus persicae spray test (Chinese cabbage leaf discs). Type of test: in vivo. The conditions noted are these: 100 g/ha; after 6 days. How it is done:
(§1) After 6 days, the efficacy in % is determined.

In a further test the test system is Tetranychus urticae. Kind of test: Tetranychus urticae spray test, OP-resistant (bean leaf discs). Type of test: in vivo. To be noted: 100 g/ha; after 6 days. How it is done:
as §1

The test system of the next test is Boophilus microplus. Nature of the test: Boophilus microplus injection test. Type of test: in vivo. To be noted: 20 μg/animal; assessed after 7 days. How it is done: (§2) • Solvent: dimethyl sulfoxide
1 μl of the active ingredient solution is injected into the abdomen of 5 engorged adult female cattle ticks (Boophilus microplus). The animals are transferred into dishes and kept in a climate-controlled room.

The subject of the next test is Rhipicephalus sanguineus. Nature of the test: Rhipicephalus sanguineus in vitro contact test with adult brown dog ticks. Type of test: in vivo. To be noted: application rate 5 μg/cm^2 (=500 g/ha); after 48 h; dead or moribund ticks. Summed up:
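Adult Rhipicephalus sanguineus (5-10 per tube) held in glass tubes coated with compound from acetone solution, 900 ppm giving 5 μg/cm^2, in the dark at room temperature. After 48 h ticks put on a 45-50° C hotplate up to 5 min; motionless or uncoordinated ticks scored dead/moribund as % efficacy.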

The test system of a further test is Spodoptera frugiperda. Nature of the test: Spodoptera frugiperda spray test. The class given is in vivo. To be noted: 100 g/ha; after 7 days.
For test [1], the system named is Ctenocephalides felis. Nature of the test: Ctenocephalides felis oral test. Type of test: in vivo. The conditions noted are these: 100 ppm in citrated cattle blood; after 2 days.
The test system of another test is Musca domestica. Nature of the test: Musca domestica test. The class given is in vivo. The conditions noted are these: 100 ppm; adult houseflies; after 2 days. How it is done:
as §2
To produce a suitable active ingredient formulation, 10 mg of active ingredient are mixed with 0.5 ml of dimethyl sulfoxide, and the concentrate is diluted with water to the desired concentration.
Vessels containing a sponge treated with sugar solution and the active ingredient formulation of the desired concentration are populated with 10 adult houseflies (Musca domestica).

Test [2] relates to Ctenocephalides felis. Nature of the test: Ctenocephalides felis in vitro contact test with adult cat fleas. The class given is in vivo. The conditions noted are these: application rate 5 μg/cm^2 (=500 g/ha); after 48 h; dead or moribund fleas. How it is done:
For the coating of the test tubes, 9 mg of active ingredient are first dissolved in 1 ml of acetone p.a. and then diluted to the desired concentration with acetone p.a. 250 μl of the solution are distributed homogeneously on the inner walls and the base of a 25 ml glass tube by turning and rocking on an orbital shaker (rocking rotation at 30 rpm for 2 h). With 900 ppm of active ingredient solution and internal surface area 44.7 cm^2, given homogeneous distribution, an area-based dose of 5 μg/cm^2 is achieved.
After the solvent has evaporated off, the tubes are populated with 5-10 adult cat fleas (Ctenocephalides felis), sealed with a perforated plastic lid and incubated in a horizontal position at room temperature and ambient humidity. After 48 h, efficacy is determined. To this end, the tubes are stood upright and the fleas are knocked to the base of the tube. Fleas which remain motionless at the base or move in an uncoordinated manner are considered to be dead or moribund.
100% efficacy means that all the fleas were dead or moribund. 0% efficacy means that no fleas were harmed.

The subject of the next test is Phaedon cochleariae. Kind of test: Phaedon cochleariae spray test. To be noted: 100 g/ha; after 7 days.

As for `CC(=O)NCc1c(F)ccc(-c2cnn(-c3c(Cl)cc(C(F)(C(F)(F)F)C(F)(F)F)cc3C(F)(F)F)c2)c1F` [Ia-147], the efficacy in the test on Myzus persicae is 90%; in the test on Tetranychus urticae, 100%; in the test on Rhipicephalus sanguineus, 100%; in the test on Spodoptera frugiperda, 100%; in the test with Ctenocephalides felis [2] it was 100%; in the test on Phaedon cochleariae, 100%. In the test on Boophilus microplus, the “efficacy (laying of fertile eggs)” value is on record as 100%. Besides, the “efficacy (rate of extermination)” value with Ctenocephalides felis [1] and in the test with Musca domestica was 100% throughout.
As for `CC(=O)NCc1cc(-c2cnn(-c3c(Cl)cc(C(F)(C(F)(F)F)C(F)(F)F)cc3S(C)(=O)=O)c2)ccc1F` [Ia-11], the efficacy in the test with Myzus persicae, in the test with Tetranychus urticae, in the test on Rhipicephalus sanguineus and in the test on Phaedon cochleariae was 100% each time. Further, the “efficacy (laying of fertile eggs)” value in the test on Boophilus microplus was found to be 100%. Further, the “efficacy (rate of extermination)” value in the test on Ctenocephalides felis [1] and in the test on Musca domestica was 100% each time.
Regarding `CCC(=O)NCc1cc(-c2cnn(-c3c(Cl)cc(C(F)(C(F)(F)F)C(F)(F)F)cc3C(F)(F)F)c2)cnc1Cl` [Ia-138], the efficacy is given as 90% with Myzus persicae, 90% with Tetranychus urticae, 100% in the test with Spodoptera frugiperda and 100% with Phaedon cochleariae.
Consider `CCC(=O)N(C)Cc1cc(-c2cnn(-c3c(Cl)cc(C(F)(C(F)(F)F)C(F)(F)F)cc3OC(F)(F)F)c2)cnc1Cl` [Ia-135], for which the efficacy is given as 90% in the test with Myzus persicae, 100% with Tetranychus urticae, 100% in the test with Spodoptera frugiperda and 100% in the test on Phaedon cochleariae.
Turning to `O=C(NCc1cc(-c2cnn(-c3c(Cl)cc(C(F)(C(F)(F)F)C(F)(F)F)cc3C(F)F)c2)ccc1F)C1CC1` [Ia-58], the efficacy with Myzus persicae was found to be 70%; in the test with Tetranychus urticae it was 100%; in the test on Spodoptera frugiperda it was 100%; with Phaedon cochleariae, 100%.
As for `CCC(=O)NCc1cc(-c2cnn(-c3c(Cl)cc(C(F)(C(F)(F)F)C(F)(F)F)cc3C(F)F)c2)cnc1Cl` [Ia-154], the efficacy stood at 90% with Myzus persicae, 100% with Tetranychus urticae, 100% with Spodoptera frugiperda and 100% in the test with Phaedon cochleariae.
`CCC(=O)N(C)Cc1cc(-c2cnn(-c3c(Cl)cc(C(F)(C(F)(F)F)C(F)(F)F)cc3Cl)c2)cnc1Cl` [Ia-134]: the efficacy with Myzus persicae, in the test on Tetranychus urticae, in the test with Spodoptera frugiperda, in the test on Ctenocephalides felis [2] and in the test with Phaedon cochleariae was 100% throughout. Moreover, the “efficacy (laying of fertile eggs)” value in the test with Boophilus microplus is listed as 100%. Besides, the “efficacy (rate of extermination)” value in the test with Ctenocephalides felis [1] and in the test on Musca domestica was 100% each time.
Consider `CC(=O)NCc1c(F)ccc(-c2cnn(-c3c(Cl)cc(C(F)(C(F)(F)F)C(F)(F)F)cc3Cl)c2)c1F` [Ia-149], for which the efficacy in the test on Myzus persicae was found to be 90%; in the test on Tetranychus urticae it was 100%; in the test with Spodoptera frugiperda it was 100%; in the test on Ctenocephalides felis [2], 100%; with Phaedon cochleariae it was 100%. Besides, the “efficacy (laying of fertile eggs)” value in the test with Boophilus microplus is reported as 100%. For the same molecule, the “efficacy (rate of extermination)” value in the test on Ctenocephalides felis [1] and with Musca domestica was 100% each time.
`CC(=O)NCc1cc(-c2cnn(-c3c(Cl)cc(C(F)(C(F)(F)F)C(F)(F)F)cc3OC(F)F)c2)cnc1Cl` [Ia-156]: the efficacy worked out at 90% in the test on Myzus persicae, 100% in the test on Tetranychus urticae, 100% with Spodoptera frugiperda and 100% in the test with Phaedon cochleariae.
In the case of `CCC(=O)NCc1cccc(-c2cnn(-c3c(Cl)cc(C(F)(C(F)(F)F)C(F)(F)F)cc3Cl)c2)c1F` [Ia-152], the efficacy in the test on Myzus persicae, in the test with Spodoptera frugiperda and with Phaedon cochleariae was 100% throughout. Moreover, the “efficacy (laying of fertile eggs)” value in the test on Boophilus microplus was found to be 100%. Also, the “efficacy (rate of extermination)” value with Ctenocephalides felis [1] and with Musca domestica was 100% in each case.
For the molecule `CCC(=O)NCc1cccc(-c2cnn(-c3c(Cl)cc(C(F)(C(F)(F)F)C(F)(F)F)cc3OC(F)F)c2)c1F` [Ia-159], the results for the efficacy with Myzus persicae, with Spodoptera frugiperda and with Phaedon cochleariae were 90%, 100% and 100%, respectively. The “efficacy (laying of fertile eggs)” value in the test on Boophilus microplus was found to be 100%. Moreover, the “efficacy (rate of extermination)” value in the test on Ctenocephalides felis [1] and in the test with Musca domestica was 100% each time.
In the case of `CC(=O)NCc1cccc(-c2cnn(-c3c(Cl)cc(C(F)(C(F)(F)F)C(F)(F)F)cc3OC(F)F)c2)c1F` [Ia-155], the efficacy in the test on Myzus persicae came out at 90%; in the test on Spodoptera frugiperda it was 100%; in the test with Phaedon cochleariae it was 100%. Also, in the test with Boophilus microplus, the “efficacy (laying of fertile eggs)” value came to 100%. Further, the “efficacy (rate of extermination)” value in the test with Ctenocephalides felis [1] and in the test on Musca domestica was 100% in each case.
In the case of `CC(=O)NCc1cc(-c2cnn(-c3c(Cl)cc(C(F)(C(F)(F)F)C(F)(F)F)cc3C#N)c2)ccc1Cl` [Ia-104], the efficacy in the test on Tetranychus urticae, in the test with Rhipicephalus sanguineus, with Spodoptera frugiperda, with Ctenocephalides felis [2] and with Phaedon cochleariae was 100% throughout. Further, the “efficacy (laying of fertile eggs)” value in the test with Boophilus microplus is recorded as 100%. Further, the “efficacy (rate of extermination)” value with Ctenocephalides felis [1] and with Musca domestica was 100% in each case.
With `CCC(=O)NCc1cc(-c2cnn(-c3c(Cl)cc(C(F)(C(F)(F)F)C(F)(F)F)cc3C(F)(F)F)c2)ccc1C` [Ia-80], the efficacy with Myzus persicae was 90%; with Tetranychus urticae, 100%; with Rhipicephalus sanguineus it was 100%; in the test on Spodoptera frugiperda it was 100%; in the test with Ctenocephalides felis [2] it was 100%; with Phaedon cochleariae, 83%. In the test on Boophilus microplus, the “efficacy (laying of fertile eggs)” value amounted to 100%. The “efficacy (rate of extermination)” value in the test with Ctenocephalides felis [1] and in the test on Musca domestica was 100% throughout.
For the molecule `CCC(=O)NCc1cc(-c2cnn(-c3c(C)cc(C(F)(C(F)(F)F)C(F)(F)F)cc3Cl)c2)ccc1C` [Ia-76], the efficacy with Myzus persicae was 90%; with Tetranychus urticae, 100%; with Rhipicephalus sanguineus, 100%; with Spodoptera frugiperda it was 100%; in the test with Ctenocephalides felis [2], 100%; in the test on Phaedon cochleariae, 100%. For the same molecule, in the test with Boophilus microplus, the “efficacy (laying of fertile eggs)” value was 100%. Also, the “efficacy (rate of extermination)” value in the test on Ctenocephalides felis [1] and in the test on Musca domestica was 100% each time.
For the molecule `CC(=O)N(C)Cc1cc(-c2cnn(-c3c(Cl)cc(C(F)(C(F)(F)F)C(F)(F)F)cc3OC(F)(F)F)c2)cnc1Cl` [Ia-136], the efficacy in the test on Myzus persicae, with Tetranychus urticae, with Spodoptera frugiperda, with Ctenocephalides felis [2] and in the test on Phaedon cochleariae was 100% in each case. Moreover, the “efficacy (laying of fertile eggs)” value in the test with Boophilus microplus was 100%. The “efficacy (rate of extermination)” value in the test with Ctenocephalides felis [1] and in the test on Musca domestica was 100% throughout.
